This passage reports IC50 results from patent US5925639A, “Keto amide derivatives useful as farnesyl protein transferase inhibitors” (Schering Corporation, priority 1997, dated 1999).

Each structure is given as a SMILES string.

For assay [1], the target named is farnesyl protein transferase (Homo sapiens, UniProt P49354+P49356). Put plainly: FPT IC50 (inhibition of farnesyl protein transferase, in vitro enzyme assay). Type of assay: biochemical. The procedure:
(§1) FPT IC50 (inhibition of farnesyl protein transferase, in vitro enzyme assay), COS Cell IC50 (Cell-Based Assay), GGPT IC50 (inhibition of geranylgeranyl protein transferase, in vitro enzyme assay), Cell Mat Assay, and anti-tumor activity (in vivo anti-tumor studies) are determined by the assay procedures described in WO 95/10516.

For assay [2], the system named is COS Cell. Put plainly: COS Cell IC50 (Cell-Based Assay). The protocol:
as §1

In assay [1], `O=C(CCC(=O)N1CCC([C@H]2c3ncc(Br)cc3CCc3cc(Cl)cc(Br)c32)CC1)c1ccccc1` [Example 1] registered a concentration for half-maximal inhibition (IC50) of 0.021 µM. Still for that read-out and setting: the result for `O=C(C(=O)N1CCC([C@H]2c3ncc(Br)cc3CCc3cc(Cl)cc(Br)c32)CC1)c1ccccc1` [Example 2] reads 0.065 µM. Take `CC(=O)CCC(=O)N1CCC([C@H]2c3ncc(Br)cc3CCc3cc(Cl)cc(Br)c32)CC1` [Example 3]: the 50% inhibitory concentration (IC50) in assay [2] was 0.054 µM; in assay [1], 0.0034 µM. The like results for `CC(=O)CCCC(=O)N1CCC([C@H]2c3ncc(Br)cc3CCc3cc(Cl)cc(Br)c32)CC1` [Example 4] were, in that order, 0.01 µM and 0.0076 µM. Take `CC(=O)CC(=O)CCC(=O)N1CCC([C@H]2c3ncc(Br)cc3CCc3cc(Cl)cc(Br)c32)CC1` [Example 5]: the half-inhibitory concentration (IC50) in assay [2] was 0.175 µM; in assay [1], 0.0092 µM. `CC(=O)C(=O)N1CCC([C@H]2c3ncc(Br)cc3CCc3cc(Cl)cc(Br)c32)CC1` [Example 6]: the IC50 in assay [1] turned out to be 0.046 µM. Same read-out and setting: then `C/C(CCC(=O)N1CCC([C@H]2c3ncc(Br)cc3CCc3cc(Cl)cc(Br)c32)CC1)=N/O` [Example 7], with 0.011 µM. For the molecule `C/C(CCC(=O)N1CCC([C@H]2c3ncc(Br)cc3CCc3cc(Cl)cc(Br)c32)CC1)=N\O` [Example 8], the IC50 was determined as 0.052 µM in assay [2] and 0.0049 µM in assay [1]. In assay [1], `O=C(/C(=N\O)c1ccccc1)N1CCC([C@H]2c3ncc(Br)cc3CCc3cc(Cl)cc(Br)c32)CC1` [Example 9] returned an IC50 above 0.15 µM.

Consider `O=C(CC/C(=N\O)c1ccccc1)N1CCC([C@H]2c3ncc(Br)cc3CCc3cc(Cl)cc(Br)c32)CC1` [Example 10], for which, in assay [1], inhibition was half-maximal at 0.0047 µM (IC50). On the same count and under the same terms, the result for `CO/N=C(\CCC(=O)N1CCC([C@H]2c3ncc(Br)cc3CCc3cc(Cl)cc(Br)c32)CC1)c1ccccc1` [Example 11] reads 0.088 µM. Still for that read-out and setting: the result for `CC(CCC(=O)N1CCC([C@H]2c3ncc(Br)cc3CCc3cc(Cl)cc(Br)c32)CC1)=NNC(N)=O` [Example 12] reads 0.0097 µM; that for `CC(CCC(=O)N1CCC([C@H]2c3ncc(Br)cc3CCc3cc(Cl)cc(Br)c32)CC1)=NNC(=O)C(N)=O` [Example 13], 0.0069 µM.
